pEC50: −log10 of the molar value. Values joined by “and” are separate entries in the source; they are usually repeats but may differ in a detail not shown here. Equal values may be shown once. Read-outs that look alike come from different tables or passages of the source.
How the values were obtained:
[1] = tested on: p53 signaling (p53RE-bla HCT-116 cells); experiment: cells; assay type: cell-based
[2] = tested on: p53 signaling (p53RE-bla HCT-116 cells)
[3] = tested on: p53 signaling (p53RE-bla HCT-116 cells); remark: listed apart in the source
[4] = Homo sapiens, HCT-116, read-out: p53 activation EC50, cherry pick confirmation
[5] = Homo sapiens, HCT-116, read-out: p53 activation EC50, primary screening
[6] = Homo sapiens, HCT-116, read-out: p53 activation efficacy, cherry pick confirmation
[7] = Homo sapiens, HCT-116, read-out: p53 activation efficacy, primary screening
[8] = read-out: p53 activation EC50, HLM

O=C(Nc1cccc(Cl)c1)OCC#CCCl [Barban]
4.49: pEC50 [1, 4]
4.72: pEC50 [1, 5]
inactive: Viability EC50, cherry pick confirmation (p53RE-bla HCT-116 cells) | Viability EC50, primary screening (p53RE-bla HCT-116 cells) | Viability efficacy, cherry pick confirmation (p53RE-bla HCT-116 cells) | Viability efficacy, primary screening (p53RE-bla HCT-116 cells) | p53 activation EC50, cherry pick confirmation [2] | p53 activation EC50, primary screening [2] | p53 activation efficacy, cherry pick confirmation [2] | p53 activation efficacy, primary screening [2] | p53 activation EC50, cherry pick confirmation [3] | p53 activation EC50, primary screening [3] | p53 activation efficacy, cherry pick confirmation [3] | p53 activation efficacy, primary screening [3]
46.3%: Emax [1, 6]
37.2%: Emax [1, 7]

Chlorpyrifos oxon
inactive: p53 activation EC50 [1] | p53 activation efficacy [1] | Viability EC50 (p53RE-bla HCT-116 cells) | Viability efficacy (p53RE-bla HCT-116 cells) | p53 activation EC50 [3]
5.54: pEC50 ([3]; read-out: p53 activation EC50)
33.1727 and 49.6483: p53 activation efficacy [2]
7.70: pEC50 [2]

CN1CCC(Nc2ncc3ncnc(Nc4ccc(F)c(Cl)c4)c3n2)CC1.Cl.Cl [Falnidamol dihydrochloride]
4.85: pEC50 [3, 8]
inactive: Viability EC50, HLM (p53RE-bla HCT-116 cells) | Viability EC50, No MS (p53RE-bla HCT-116 cells) | Viability EC50, RLM (p53RE-bla HCT-116 cells) | Viability Efficacy, HLM (p53RE-bla HCT-116 cells) | Viability Efficacy, No MS (p53RE-bla HCT-116 cells) | Viability Efficacy, RLM (p53RE-bla HCT-116 cells) | p53 activation EC50, HLM [3]
4.76 and 5.05: pEC50 ([2]; read-out: p53 activation EC50, RLM)
4.78 and 4.89: pEC50 ([1]; read-out: p53 activation EC50, No MS)

CN(C)c1ccc(C(=O)c2ccc(N(C)C)cc2)cc1 [Michler's ketone]
inactive: p53 activation EC50, cherry pick confirmation [1] | p53 activation efficacy, cherry pick confirmation [1] | Viability EC50, cherry pick confirmation (p53RE-bla HCT-116 cells) | Viability EC50, primary screening (p53RE-bla HCT-116 cells) | Viability efficacy, cherry pick confirmation (p53RE-bla HCT-116 cells) | Viability efficacy, primary screening (p53RE-bla HCT-116 cells) | p53 activation EC50, cherry pick confirmation [2] | p53 activation EC50, primary screening [2] | p53 activation efficacy, cherry pick confirmation [2] | p53 activation efficacy, primary screening [2] | p53 activation EC50, cherry pick confirmation [3] | p53 activation EC50, primary screening [3] | p53 activation efficacy, cherry pick confirmation [3] | p53 activation efficacy, primary screening [3]
5.55: pEC50 [1, 5]
37.9%: Emax [1, 7]

N=C1NC(=N)c2cc3ccccc3cc21 [1,3-Diiminobenz(f)isoindoline]
115.412 and 121.93: p53 activation efficacy [1]
4.62 and 4.60: pEC50 ([1]; read-out: p53 activation EC50)
inactive: Viability EC50 (p53RE-bla HCT-116 cells) | p53 activation EC50 [2] | p53 activation EC50 [3]

Cc1cccc2sc3nncn3c12 [2,7,8,9-Tricyclazole]
inactive: p53 activation EC50 [1] | p53 activation efficacy [1] | Viability EC50 (p53RE-bla HCT-116 cells) | Viability efficacy (p53RE-bla HCT-116 cells) | p53 activation EC50 [2] | p53 activation EC50 [3]

O=c1cc(-c2ccc(O)cc2)oc2cc(O)cc(O)c12 [Apigenin]
4.33: pEC50 [1, 4]
inactive: Viability EC50, cherry pick confirmation (p53RE-bla HCT-116 cells) | Viability EC50, primary screening (p53RE-bla HCT-116 cells) | Viability efficacy, cherry pick confirmation (p53RE-bla HCT-116 cells) | Viability efficacy, primary screening (p53RE-bla HCT-116 cells) | p53 activation EC50, cherry pick confirmation [2] | p53 activation EC50, primary screening [2] | p53 activation efficacy, cherry pick confirmation [2] | p53 activation efficacy, primary screening [2] | p53 activation EC50, cherry pick confirmation [3] | p53 activation EC50, primary screening [3] | p53 activation efficacy, cherry pick confirmation [3] | p53 activation efficacy, primary screening [3]
32.2%: Emax [1, 6]
51.2%: Emax [1, 7]
4.74: pEC50 [1, 5]

Cc1ccccc1C(=O)Nc1ccc(C(=O)N2CCCC(N(C)C)c3ccccc32)cc1 (stereo not shown) [Mozavaptan]
5.87: pEC50 [1, 4]
38.6%: Emax [1, 6]
5.10: pEC50 [1, 5]
inactive: Viability EC50, cherry pick confirmation (p53RE-bla HCT-116 cells) | Viability EC50, primary screening (p53RE-bla HCT-116 cells) | Viability efficacy, cherry pick confirmation (p53RE-bla HCT-116 cells) | Viability efficacy, primary screening (p53RE-bla HCT-116 cells) | p53 activation EC50, cherry pick confirmation [2] | p53 activation EC50, primary screening [2] | p53 activation efficacy, cherry pick confirmation [2] | p53 activation efficacy, primary screening [2] | p53 activation EC50, cherry pick confirmation [3] | p53 activation EC50, primary screening [3] | p53 activation efficacy, cherry pick confirmation [3] | p53 activation efficacy, primary screening [3]
66.2%: Emax [1, 7]

NC(=O)c1ncn([C@@H]2O[C@H](CO)[C@@H](O)[C@H]2O)n1 [Ribavirin]
43.7%: Emax [1, 6]
4.61: pEC50 [1, 5]
31.4%: Emax [1, 7]
inactive: Viability EC50, cherry pick confirmation (p53RE-bla HCT-116 cells) | Viability EC50, primary screening (p53RE-bla HCT-116 cells) | Viability efficacy, cherry pick confirmation (p53RE-bla HCT-116 cells) | Viability efficacy, primary screening (p53RE-bla HCT-116 cells) | p53 activation EC50, cherry pick confirmation [2] | p53 activation EC50, primary screening [2] | p53 activation efficacy, cherry pick confirmation [2] | p53 activation efficacy, primary screening [2] | p53 activation EC50, cherry pick confirmation [3] | p53 activation EC50, primary screening [3] | p53 activation efficacy, cherry pick confirmation [3] | p53 activation efficacy, primary screening [3]
4.97: pEC50 [1, 4]

CCCCNC(=O)n1c(NC(=O)OC)nc2ccccc21 [Benomyl]
inactive: Viability EC50, cherry pick confirmation (p53RE-bla HCT-116 cells) | Viability EC50, primary screening (p53RE-bla HCT-116 cells) | Viability efficacy, cherry pick confirmation (p53RE-bla HCT-116 cells) | Viability efficacy, primary screening (p53RE-bla HCT-116 cells) | p53 activation EC50, cherry pick confirmation [2] | p53 activation EC50, primary screening [2] | p53 activation efficacy, cherry pick confirmation [2] | p53 activation efficacy, primary screening [2] | p53 activation EC50, cherry pick confirmation [3] | p53 activation EC50, primary screening [3] | p53 activation efficacy, cherry pick confirmation [3] | p53 activation efficacy, primary screening [3]
38.5%: Emax [1, 6]
5.05: pEC50 [1, 4]
4.94: pEC50 [1, 5]
88.9%: Emax [1, 7]

CCOC(=O)CCN(SN(C)C(=O)Oc1cccc2c1OC(C)(C)C2)C(C)C [Benfuracarb]
inactive: p53 activation EC50 [1] | p53 activation efficacy [1] | Viability EC50 (p53RE-bla HCT-116 cells) | Viability efficacy (p53RE-bla HCT-116 cells) | p53 activation EC50 [2] | p53 activation EC50 [3]

COc1cccc2c1C(=O)c1c(O)c3c(c(O)c1C2=O)C[C@@](O)(C(=O)CO)C[C@@H]3O[C@H]1C[C@H](N)[C@H](O[C@@H]2CCCCO2)[C@H](C)O1 [Pirarubicin]
142%: Emax [1, 7]
inactive: Viability EC50, cherry pick confirmation (p53RE-bla HCT-116 cells) | Viability EC50, primary screening (p53RE-bla HCT-116 cells) | Viability efficacy, primary screening (p53RE-bla HCT-116 cells) | p53 activation EC50, cherry pick confirmation [2] | p53 activation EC50, primary screening [2] | p53 activation efficacy, cherry pick confirmation [2] | p53 activation efficacy, primary screening [2] | p53 activation EC50, cherry pick confirmation [3] | p53 activation EC50, primary screening [3] | p53 activation efficacy, cherry pick confirmation [3] | p53 activation efficacy, primary screening [3]
5.12: pEC50 [1, 4]
5.66: pEC50 [1, 5]
287%: Emax [1, 6]

Thimerosal
5.05: pEC50 (p53RE-bla HCT-116 cells; read-out: Viability EC50, RLM)
5.07 and 5.04: pEC50 (p53RE-bla HCT-116 cells; read-out: Viability EC50, No MS)
inactive: p53 activation EC50, RLM [2] | p53 activation Efficacy, RLM [2] | p53 activation EC50, HLM [3]
73.3573% and 52.656%: p53 activation Efficacy, No MS [1]
4.98 and 5.05: pEC50 (p53RE-bla HCT-116 cells; read-out: Viability EC50, HLM)
5.30: pEC50 [3, 8]

CCCSP(=S)(OCC)Oc1ccc(SC)cc1 (stereo not shown) [Sulprofos]
5.16: pEC50 ([2]; read-out: p53 activation EC50, cherry pick confirmation)
inactive: p53 activation EC50, cherry pick confirmation [1] | p53 activation EC50, primary screening [1] | p53 activation efficacy, cherry pick confirmation [1] | p53 activation efficacy, primary screening [1] | Viability EC50, cherry pick confirmation (p53RE-bla HCT-116 cells) | Viability EC50, primary screening (p53RE-bla HCT-116 cells) | Viability efficacy, cherry pick confirmation (p53RE-bla HCT-116 cells) | Viability efficacy, primary screening (p53RE-bla HCT-116 cells) | p53 activation EC50, cherry pick confirmation [3]

CC(=O)O[C@@H]1C(=O)O[C@H]2[C@@H]1OC(=O)[C@@H]2OC(C)=O [Aceglatone]
4.67: pEC50 ([1]; Homo sapiens, HCT-116, read-out: EC50, p53 activation, primary screening)
inactive: EC50, p53 activation, cherry pick confirmation [1] | Efficacy, p53 activation, cherry pick confirmation [1] | EC50, viability, cherry pick confirmation (p53RE-bla HCT-116 cells) | EC50, viability, primary screening (p53RE-bla HCT-116 cells) | Efficacy, viability, cherry pick confirmation (p53RE-bla HCT-116 cells) | Efficacy, viability, primary screening (p53RE-bla HCT-116 cells) | EC50, p53 activation, cherry pick confirmation [2] | EC50, p53 activation, primary screening [2] | Efficacy, p53 activation, cherry pick confirmation [2] | Efficacy, p53 activation, primary screening [2] | EC50, p53 activation, cherry pick confirmation [3] | EC50, p53 activation, primary screening [3] | Efficacy, p53 activation, cherry pick confirmation [3] | Efficacy, p53 activation, primary screening [3]
37.3%: Emax ([1]; Homo sapiens, HCT-116, read-out: Efficacy, p53 activation, primary screening)

CCC(C)(NC(=O)c1cc(Cl)c(C)c(Cl)c1)C(=O)CCl (stereo not shown) [Zoxamide]
4.65: pEC50 [1, 4]
inactive: Viability EC50, cherry pick confirmation (p53RE-bla HCT-116 cells) | Viability EC50, primary screening (p53RE-bla HCT-116 cells) | Viability efficacy, cherry pick confirmation (p53RE-bla HCT-116 cells) | Viability efficacy, primary screening (p53RE-bla HCT-116 cells) | p53 activation EC50, cherry pick confirmation [2] | p53 activation EC50, primary screening [2] | p53 activation efficacy, cherry pick confirmation [2] | p53 activation efficacy, primary screening [2] | p53 activation EC50, cherry pick confirmation [3] | p53 activation EC50, primary screening [3] | p53 activation efficacy, cherry pick confirmation [3] | p53 activation efficacy, primary screening [3]
4.42: pEC50 [1, 5]
50.7%: Emax [1, 7]
94.8%: Emax [1, 6]
